In the NIST ThermoML archive (doi:10.1007/s10765-009-0593-3):

Assay: xn = mol fraction of the nth substance listed
Conditions: 101 kPa, Liquid; for speed of sound: Pulse-echo method

CCCOCC(C)OCC(C)O (stereo not given) [1-(1-methyl-2-propoxyethoxy)-2-propanol] + CCCCN
Conditions	mass density, 288.15 K [kg/m3]	mass density, 293.15 K [kg/m3]	mass density, 298.15 K [kg/m3]	mass density, 303.15 K [kg/m3]	mass density, 308.15 K [kg/m3]	speed of sound, 288.15 K [m/s]	speed of sound, 293.15 K [m/s]	speed of sound, 298.15 K [m/s]	speed of sound, 303.15 K [m/s]	speed of sound, 308.15 K [m/s]
x1 = 0.1119	781.657	776.972	772.263	767.527	762.757	1299.1	1277.8	1256.7	1235.5	1214.2
x1 = 0.1625	797.6	792.951	788.269	783.562	778.83	1301.8	1281	1260.2	1239.5	1218.7
x1 = 0.2153	812.62	807.989	803.334	798.647	793.946	1304.3	1283.9	1263.4	1243.2	1222.8
x1 = 0.2414	819.423	814.802	810.159	805.481	800.782	1305.4	1285.2	1264.8	1244.8	1224.6
x1 = 0.3043	834.258	829.657	825.032	820.381	815.702	1307.7	1287.9	1267.8	1248.3	1228.4
x1 = 0.35	843.808	839.22	834.611	829.962	825.299	1309.1	1289.5	1269.7	1250.3	1230.7
x1 = 0.4162	856.225	851.642	847.04	842.409	837.754	1310.7	1291.4	1271.9	1252.8	1233.4
x1 = 0.4519	862.336	857.764	853.179	848.559	843.907	1311.3	1292.2	1272.8	1253.8	1234.6
x1 = 0.4946	869.26	864.701	860.118	855.511	850.865	1311.9	1292.9	1273.7	1254.8	1235.7
x1 = 0.547	877.184	872.638	868.071	863.48	858.867	1312.4	1293.5	1274.5	1255.8	1236.8
x1 = 0.5938	883.779	879.25	874.697	870.123	865.527	1312.6	1293.8	1275	1256.3	1237.5
x1 = 0.6567	891.947	887.44	882.917	878.364	873.793	1312.5	1293.9	1275.2	1256.6	1237.9
x1 = 0.6997	897.047	892.555	888.041	883.505	878.95	1312.2	1293.7	1275.1	1256.5	1238
x1 = 0.7665	904.096	899.635	895.15	890.644	886.119	1311.5	1293	1274.6	1256.1	1237.7
x1 = 0.8068	907.864	903.41	898.94	894.449	889.942	1310.8	1292.3	1274.1	1255.7	1237.4
x1 = 0.8466	911.283	906.844	902.376	897.903	893.412	1310	1291.6	1273.4	1255.2	1236.9
x1 = 0.9038	915.886	911.457	906.999	902.546	898.065	1308.6	1290.3	1272.1	1254.2	1236.1
x1 = 0.9528	919.898	915.486	911.061	906.607	902.137	1307.2	1288.9	1270.9	1253.1	1235.2
